# In US20260256792A1, “TREATMENT OF CHRONIC SPONTANEOUS URTICARIA BY ADMINISTERING (R)-2-[3-[4-AMINO-3-(2-FLUORO-4-PHENOXY-PHENYL)PYRAZOLO[3,4-D]PYRIMIDIN-1-YL]PIPERIDINE-1-CARBONYL]-4-METHYL-4-[4-(OXETAN-3-YL)PIPERAZIN-1-YL]PENT-2-ENENITRILE” (priority 2023, published 2026):
# Tests used:
# [1] = system: sMRGPRX2; test: Phase 2 CSU study: serum sMRGPRX2 ELISA; format: in vivo, human; settings: for SMRGPRX2 (ng/mL) Median Percent Change from Baseline: Baseline to Week 12
# Text: (§1) Blood samples were also collected through Week 12 to evaluate the change in baseline in various biomarkers, including sMRGPRX2, IgG anti-TPO, IgG anti-FCεRI, IgG anti-IgE, and IL-31.
# (§2) Collection of biological samples for other biomarker research was also part of this study. The following samples for biomarker research were required and were to be collected from all participants in this study: • Serum and plasma samples for soluble biomarkers and cellular tests. Analytes included IgG anti-IgE, IgG anti-FcεRI, IgG anti-TPO, IgE anti-TPO, IL-31, and sMRGPRX2. • Blood samples for immune cell phenotyping, including measurement of eosinophil levels • Blood samples for BTK occupancy in peripheral blood mononuclear cells (PBMCs) at selected sites
# (§3) For each patient, serum samples were to be collected on each of four visits (Visits 2, 4, 6, and end of study/follow up).
# Serum analyte testing was to be performed using the following commercial assays: • sMRGPRX2 ELISA (Cat. No. #MBS933336; MyBioSource) • IL-31 HTRF assay (Cat. No. #62HIL31PEG; Cisbio/PerkinElmer) • IgG anti-TPO ELISA (Cat. No. #ORG503; Orgentec Diagnostica GmbH)
# (§4) If dilutions were to be prepared, the same dilutions were to be prepared twice from each sample. These were to be measured on different plates. Each plate was to include a standard curve. Samples were to be measured twice for all biomarkers except for sMRGPRX2. Mean measurement values were to be calculated, and the concentration of the biomarker was to be calculated using GraphPad Prism 9 software (4-PL model).
# For the sMRGPRX2 ELISA, measurements were performed according to the manufacturer's instructions. Single measurements were obtained for all samples.
# (§5) Assay data ranges are described below. • sMRGPRX2: 0.1 ng/mL-10 ng/mL • IgG anti-FCεRI: 0-10000 arbitrary units (AU) • IgG anti-TPO: 0-3000 international units (IU) • IgE anti-TPO: 0-500 AU • IgG anti-IgE: 0-100000 AU • IL-31: 0.1 ng/mL-20 ng/mL
# [2] = system: IgG anti-FcεRI; test: Phase 2 CSU study: serum IgG anti-FcεRI ELISA; format: in vivo, human; settings: for IgG anti-FcεRI (arbitrary unit) Median Percent Change from Baseline: Baseline to Week 12
# Text: as §1, §2, §3, §4
# For the IgG anti-FcεRI ELISA, MaxiSorp plates were coated overnight with […] recombinant human FcεRIα and blocked with 10% protein-free blocking buffer diluted in assay buffer. Following the addition of serum samples (1:100 in assay buffer) or the hIgG anti-FcεRI standard (1:2 serial dilution in assay buffer), the plates were incubated at room temperature. Next, the anti-IgG-HRP detection antibody was added to all samples. Development was performed using ECL-prime solution and chemiluminescent signal intensity was measured on the Victor5 multimode plate reader.
# as §5
# [3] = system: 251 kinases sharing a common cysteine in their active site; settings: 1 μM; cited from earlier work
smiles,measurement,setting,value
"CC(C)(C=C(C#N)C(=O)N1CCC[C@@H](n2nc(-c3ccc(Oc4ccccc4)cc3F)c3c(N)ncnc32)C1)N1CCN(C2COC2)CC1 [rilzabrutinib, (R)-2-[3-[4-amino-3-(2-fluoro-4-phenoxy-phenyl)pyrazolo[3,4-d]pyrimidin-1-yl]piperidine-1-carbonyl]-4-methyl-4-[4-(oxetan-3-yl)piperazin-1-yl]pent-2-enenitrile]",reduction from baseline median sMRGPRX2 levels,"[1]; 400 mg TID, Week 12",22.8%
same,SMRGPRX2 (ng/mL) Median Percent Change from Baseline,[1]; 400 mg BID,−29.3%
same,SMRGPRX2 (ng/mL) Median Percent Change from Baseline,[1]; 400 mg QPM,−31.1%
same,SMRGPRX2 (ng/mL) Median Percent Change from Baseline,[1]; 400 mg TID,−22.8%
same,reduction from baseline for IgG anti-FCFRI,"[2]; 400 mg TID, Week 12",38.7%
same,IgG anti-FcεRI (arbitrary unit) Median Percent Change from Baseline,[2]; 400 mg BID,−39.0%
same,IgG anti-FcεRI (arbitrary unit) Median Percent Change from Baseline,[2]; 400 mg QPM,−20.4%
same,IgG anti-FcεRI (arbitrary unit) Median Percent Change from Baseline,[2]; 400 mg TID,−38.7%
same,number of kinases inhibited (>90% inhibition) of 251 kinases,[3],6
